Active and inactive are the calls of the source. No cut-off for these calls is given here.
Tests used:
[1] = Antiproliferative activity against human Sunitinib-resistant 786-R cells incubated for 48 hrs by XTT assay; type: functional, cell-based
[2] = target: Tyrosine-protein kinase Fyn (Homo sapiens) (UniProt P06241); experiment: Inhibition of FYN (unknown origin) at 10 uM in presence of ATP at Km concentration
[3] = target: Glycogen synthase kinase-3 beta (Homo sapiens) (UniProt P49841); experiment: Inhibition of GSK3B (unknown origin) at 10 uM in presence of ATP at Km concentration
Chain of Glycogen synthase kinase-3 beta (Homo sapiens) (P49841 whole entry, looked up): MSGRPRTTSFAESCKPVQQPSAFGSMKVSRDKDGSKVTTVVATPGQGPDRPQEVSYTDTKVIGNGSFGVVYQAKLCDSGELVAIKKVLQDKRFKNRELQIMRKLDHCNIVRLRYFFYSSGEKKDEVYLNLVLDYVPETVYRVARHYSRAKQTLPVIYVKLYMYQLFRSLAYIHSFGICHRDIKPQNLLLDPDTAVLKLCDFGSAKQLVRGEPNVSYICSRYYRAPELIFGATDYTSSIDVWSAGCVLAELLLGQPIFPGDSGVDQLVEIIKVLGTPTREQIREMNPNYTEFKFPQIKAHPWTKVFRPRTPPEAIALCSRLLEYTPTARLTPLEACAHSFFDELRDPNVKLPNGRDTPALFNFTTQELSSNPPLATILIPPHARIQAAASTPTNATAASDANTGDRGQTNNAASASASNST

[4] = target: Ribosomal protein S6 kinase beta-2 (Homo sapiens) (UniProt Q9UBS0); experiment: Inhibition of RPS6KB2 (unknown origin) at 10 uM in presence of ATP at Km concentration
Chain of Ribosomal protein S6 kinase beta-2 (Homo sapiens) (Q9UBS0 whole entry): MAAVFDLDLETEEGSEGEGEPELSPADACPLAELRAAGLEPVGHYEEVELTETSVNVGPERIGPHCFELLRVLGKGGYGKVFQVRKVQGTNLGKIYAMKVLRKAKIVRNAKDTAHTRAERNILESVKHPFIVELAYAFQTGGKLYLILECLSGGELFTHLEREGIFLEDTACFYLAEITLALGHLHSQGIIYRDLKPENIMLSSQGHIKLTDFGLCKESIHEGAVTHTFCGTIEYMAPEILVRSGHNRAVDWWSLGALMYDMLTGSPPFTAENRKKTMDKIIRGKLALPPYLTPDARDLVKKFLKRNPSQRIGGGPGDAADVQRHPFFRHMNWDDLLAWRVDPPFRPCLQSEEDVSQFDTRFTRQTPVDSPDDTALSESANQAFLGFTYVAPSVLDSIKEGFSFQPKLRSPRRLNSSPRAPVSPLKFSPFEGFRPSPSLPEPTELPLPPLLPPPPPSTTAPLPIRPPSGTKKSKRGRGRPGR

[5] = target: Serine/threonine-protein kinase TAO1 (Homo sapiens) (UniProt Q7L7X3); experiment: Inhibition of TAOK1 (unknown origin) at 10 uM in presence of ATP at Km concentration
Chain of Serine/threonine-protein kinase TAO1 (Homo sapiens) (Q7L7X3 whole entry): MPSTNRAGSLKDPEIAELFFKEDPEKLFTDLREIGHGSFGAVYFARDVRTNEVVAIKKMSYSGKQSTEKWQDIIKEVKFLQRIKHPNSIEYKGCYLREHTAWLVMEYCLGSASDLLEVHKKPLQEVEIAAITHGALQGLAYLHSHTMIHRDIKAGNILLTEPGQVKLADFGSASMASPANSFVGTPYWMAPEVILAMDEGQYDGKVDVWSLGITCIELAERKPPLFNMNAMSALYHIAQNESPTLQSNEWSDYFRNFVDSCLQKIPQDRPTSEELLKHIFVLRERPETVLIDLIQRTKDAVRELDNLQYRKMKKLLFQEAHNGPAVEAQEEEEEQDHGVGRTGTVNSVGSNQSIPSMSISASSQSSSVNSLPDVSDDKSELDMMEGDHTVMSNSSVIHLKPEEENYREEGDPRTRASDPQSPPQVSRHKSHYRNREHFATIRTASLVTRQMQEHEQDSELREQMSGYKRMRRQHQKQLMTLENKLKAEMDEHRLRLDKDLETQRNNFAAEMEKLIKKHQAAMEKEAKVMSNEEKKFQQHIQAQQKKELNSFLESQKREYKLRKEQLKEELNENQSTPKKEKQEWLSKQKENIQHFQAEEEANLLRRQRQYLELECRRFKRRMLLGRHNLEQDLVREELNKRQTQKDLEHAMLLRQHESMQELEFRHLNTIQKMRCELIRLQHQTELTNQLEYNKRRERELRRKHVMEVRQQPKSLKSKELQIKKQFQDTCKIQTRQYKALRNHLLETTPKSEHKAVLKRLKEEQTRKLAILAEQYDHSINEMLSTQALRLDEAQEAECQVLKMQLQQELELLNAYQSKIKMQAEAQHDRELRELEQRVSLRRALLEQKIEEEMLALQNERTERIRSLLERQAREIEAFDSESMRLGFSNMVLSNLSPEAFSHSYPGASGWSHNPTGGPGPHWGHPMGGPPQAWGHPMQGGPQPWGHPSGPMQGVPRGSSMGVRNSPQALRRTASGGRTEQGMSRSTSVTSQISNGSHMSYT

[6] = target: TGF-beta receptor type-2 (Homo sapiens) (UniProt P37173); experiment: Inhibition of TGFBR2 (unknown origin) at 10 uM in presence of ATP at Km concentration
Chain of TGF-beta receptor type-2 (Homo sapiens) (P37173 whole entry): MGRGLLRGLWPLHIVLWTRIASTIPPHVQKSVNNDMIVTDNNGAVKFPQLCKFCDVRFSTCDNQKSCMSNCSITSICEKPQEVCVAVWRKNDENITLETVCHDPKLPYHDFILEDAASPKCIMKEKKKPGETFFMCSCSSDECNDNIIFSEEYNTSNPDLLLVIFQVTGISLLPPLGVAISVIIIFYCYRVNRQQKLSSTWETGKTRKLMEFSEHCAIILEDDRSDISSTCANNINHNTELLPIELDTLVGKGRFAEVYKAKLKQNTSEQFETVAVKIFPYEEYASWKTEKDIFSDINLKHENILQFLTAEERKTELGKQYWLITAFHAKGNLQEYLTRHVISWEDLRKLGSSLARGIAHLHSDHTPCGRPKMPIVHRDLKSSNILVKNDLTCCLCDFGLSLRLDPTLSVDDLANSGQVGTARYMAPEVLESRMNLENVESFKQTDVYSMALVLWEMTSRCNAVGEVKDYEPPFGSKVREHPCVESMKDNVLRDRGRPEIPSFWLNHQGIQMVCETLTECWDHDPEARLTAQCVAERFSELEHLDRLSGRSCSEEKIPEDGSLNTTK

[7] = Volume of distribution in NOD SCID mouse at 1 mg/kg, iv; type: ADME, organism-based; conditions: in vivo
786-0 = experiment: Antitumor activity against human 786-0 cells xenografted in athymic nude mouse assessed as tumor growth inhibition at 100 mg/kg, po administered twice daily via gavage for 28 days relative to control; type: functional; conditions: 786-0, 672 h, time 28 day, read-out: TGI

Chain of Tyrosine-protein kinase Fyn (Homo sapiens) (P06241 2-537 limits assumed): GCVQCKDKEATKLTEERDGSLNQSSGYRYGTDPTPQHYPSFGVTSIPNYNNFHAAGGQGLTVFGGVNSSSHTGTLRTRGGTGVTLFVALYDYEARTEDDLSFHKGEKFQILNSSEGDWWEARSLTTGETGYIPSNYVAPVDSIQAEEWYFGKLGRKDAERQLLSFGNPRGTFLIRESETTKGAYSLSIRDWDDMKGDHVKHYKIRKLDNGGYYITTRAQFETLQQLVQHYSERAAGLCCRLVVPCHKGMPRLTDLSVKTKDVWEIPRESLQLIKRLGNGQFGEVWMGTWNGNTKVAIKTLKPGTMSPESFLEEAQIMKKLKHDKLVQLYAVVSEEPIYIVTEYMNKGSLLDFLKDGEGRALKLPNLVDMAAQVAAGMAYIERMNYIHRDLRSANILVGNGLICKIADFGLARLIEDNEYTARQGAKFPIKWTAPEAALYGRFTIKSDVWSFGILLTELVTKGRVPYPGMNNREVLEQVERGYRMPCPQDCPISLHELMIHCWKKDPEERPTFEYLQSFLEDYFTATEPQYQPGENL

- inhibition [2]: inactive
- inhibition [3]: inactive
- inhibition [4]: inactive
- inhibition [5]: inactive
- inhibition [6]: inactive
- Vd [7]: 1 L/kg
SMILES: O=C(Nc1cc(Cl)cc(Cl)c1)Nc1nc2ccc([N+](=O)[O-])cc2s1
- IC50 [1]: 3000 nM
- inhibition in vivo at 100 mg/kg (786-0): 87%
